The text below walks through data of patent US9050268B2, “Functional amphipilic molecule or macromolecule formulations with multiple compartments” (UNIVERSITE d'AIX-MARSEILLE, priority 2009, dated 2015).

For experiment [1], the system named is IGROV1 cells (cisplatin-sensitive ovarian adenocarcinoma line). The experiment can be described thus: Assay of intracellular cisplatin (ICP optical assay after cell lysis). The settings on record: 10^6 IGROV1 cells, 100 μM, 2 hours. It counts as cell-based, human. Here is the method: (§1) IGROV1 cells (cisplatin-sensitive ovarian adenocarcinoma line) at 80% confluence (dish 10 cm in diameter) are treated with […] of free cisplatin or cisplatin encapsulated in the nanoparticles of Example 10 for 2, 4 or 6 hours. On completion of this treatment two washings with PBS are carried out. The cells are treated with trypsin and resuspended in PBS. Two washings of the cell suspensions with PBS are carried out (centrifugation 1000 rpm/1 min). The cells are suspended in 1 mL of PBS and counted.
(§2) 10^6 cells are lysed with 500 μL of the cell lysis solution (lysis buffer from SIGMA). The volume is topped up to 5 mL with milli-Q water with 1% HNO3 acid.

Experiment [2] has as its system IGROV1 (cisplatin-sensitive). The experiment is described as follows: Cytotoxic effects on tumor lines IGROV-1 and SKOV3 (MTS cell viability). Conditions: 24 hours treatment, MTS 48 hours after washing, read-out: concentration necessary to obtain 50% cell death (IC50). It is filed as cell-based, human. Here is the method:
(§3) 2500 cells (IGROV1, SKOV3, ovarian adenocarcinoma lines) per well are incubated in 100 μL of the medium with serum in a 96-well plate. After 24 hours the medium is aspirated and the cells are treated with free cisplatin or cisplatin encapsulated in the nanoparticles of Example 10 in 100 μL of the medium without serum at different concentrations (500, 100, 10, 1, 0.1, 0.01, 0.001 μM). After treatment for 24 hours, the medium is removed and the cells are washed twice with 100 μL of PBS then incubated with 100 μL of the medium with serum.
(§4) The absorbance at 490 nm is measured after incubation for 2 to 4 hours at 37° C. The absorbance is proportional to the cell viability.

In experiment [3] the test system is cisplatin-resistant A2780/CisPt (Human ovarian carcinoma epithelial tumor). The experiment is described as follows: Cytotoxic effects on tumor lines (MTS cell viability). The settings on record: cisplatin-resistant line A2780; 24 hours treatment, MTS 48 hours after washing; read-out: concentration necessary to obtain 50% cell death (IC50). It is filed as cell-based.
From the text: (§5) The study consists of determining the concentration inhibiting 50% of cell proliferation (IC50) on a panel of tumor lines, namely • cisplatin-sensitive A2780 (Human ovarian carcinoma epithelial tumor) and cisplatin-resistant A2780/CisPt (Human ovarian carcinoma epithelial tumor) • cisplatin-sensitive IGROV-1 (Human ovarian carcinoma) and cisplatin-resistant IGROV-1/CisPt (Human ovarian carcinoma) • cisplatin-sensitive L1210 (mouse lymphocytic leukemia) and cisplatin-resistant L1210/CisPt (mouse lymphocytic leukemia) […] • NIH: OVCAR3 (ovarian carcinoma), and • P388 (mouse lymphoma)
(§6) 2500 cells (ovarian adenocarcinoma lines, etc.) per well are incubated in 100 μL of the medium with serum in a 96-well plate. After 24 hours the medium is aspirated and the cells are treated with free cisplatin or cisplatin encapsulated in the nanoparticles of Example 10 in 100 μL of the medium without serum at different concentrations (500, 100, 10, 1, 0.1, 0.01, 0.001 μM). After treatment for 24 hours, the medium is removed and the cells are washed twice with 100 μL of PBS then incubated with 100 μL of the medium with serum.
as §4

Experiment [4] deals with cisplatin-sensitive A2780 (Human ovarian carcinoma epithelial tumor). Described as above. Conditions: 24 hours treatment, MTS 48 hours after washing, read-out: concentration necessary to obtain 50% cell death (IC50). It is filed as cell-based.
From the text: as §5, §6, §4

Experiment [5] deals with SKOV3 (cisplatin-resistant). The experiment can be described thus: Cytotoxic effects on tumor lines IGROV-1 and SKOV3 (MTS cell viability). It counts as cell-based. The settings on record: 24 hours treatment, MTS 48 hours after washing, read-out: concentration necessary to obtain 50% cell death (IC50). Here is the method:
as §3, §4

For experiment [6], the system named is SKV03 cells (cisplatin-resistant ovarian adenocarcinoma line). The experiment is described as follows: Assay of intracellular cisplatin (ICP optical assay after cell lysis). It is filed as cell-based. The settings on record: 10^6 cells SKOV3, 100 μM, 2 hours. Here is the method: as §1
The same procedure is followed with SKV03 cells (cisplatin-resistant ovarian adenocarcinoma line).
as §2

`N.N.[Cl][Pt][Cl]` [free cisplatin, cisplatin]: the cisplatin internalized in experiment [1] and in experiment [6] was 0.5 nmol throughout. In addition, the IC50 in experiment [2] turned out to be 2.41 µM; in experiment [3], 29.2 µM; in experiment [4], 4.68 µM; in experiment [5], 4.3 µM.
